Source: US9593136B2 (priority 2011, dated 2017)
In brackets after ≈: the same amount, converted by molar mass. Where two headings read alike, the source gives them in different places.

Columns and labels:
[1] = target: M. tuberculosis Dxr (Mycobacterium tuberculosis, UniProt P9WNS1); assay: biochemical
[2] = test system: Mtb H37Rv (ATCC 27294); assay: microbe, parasite or virus in culture; assay type: cell-based, Mycobacterium tuberculosis; conditions: Mycobacterium tuberculosis
[3] = read-out: Mtb MIC (ug/mL) (7H9)
[4] = read-out: Mtb MIC (ug/mL) (GAST)

M. tuberculosis Dxr, sequence (P9WNS1 whole entry, looked up): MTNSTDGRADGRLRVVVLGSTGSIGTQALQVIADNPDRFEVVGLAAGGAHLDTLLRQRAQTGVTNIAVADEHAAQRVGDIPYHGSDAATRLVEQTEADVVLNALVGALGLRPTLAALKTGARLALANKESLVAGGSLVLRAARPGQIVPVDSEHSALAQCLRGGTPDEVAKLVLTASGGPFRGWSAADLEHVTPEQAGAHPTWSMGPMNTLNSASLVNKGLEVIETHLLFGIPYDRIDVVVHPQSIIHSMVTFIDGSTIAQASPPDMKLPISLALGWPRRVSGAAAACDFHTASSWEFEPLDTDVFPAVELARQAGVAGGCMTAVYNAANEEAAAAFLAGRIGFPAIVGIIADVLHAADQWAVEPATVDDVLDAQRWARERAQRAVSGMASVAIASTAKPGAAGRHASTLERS

Row | SMILES | IC50 ([1]; Mtb Dxr IC50 (ug/mL)) [µM] | MIC ([2]; read-out: Mtb MIC (ug/mL)) [µg/mL] | further results
1 | CC(=O)N(CCCP(=O)(O)O)OCc1ccc(-c2ccccc2)cc1 [GSJ74] | 68.6 | 25 to 50 (≈ 68.8 to 138 µM) | –
2 | CC(=O)N(CCCP(=O)(O)O)OCC1CCCCC1 [GSJ75] | 212 | > 200 | –
3 | CC(=O)N(CCCP(=O)(O)O)OCc1ccc(C(C)C)cc1 [GSJ76] | 54 | – | MIC [2, 3]: 200 µg/mL (≈ 607 µM); MIC [2, 4]: 25 µg/mL (≈ 75.9 µM)
4 | CC(=O)N(CCCP(=O)(O)O)OCc1ccc2ccccc2c1 [GSJ77] | 47.7 | ≥ 200 | –
5 | CC(=O)N(CCCP(=O)(O)O)OCCc1ccccc1 [GSJ78] | 103 | > 200 | –
6 | CCOP(=O)(CCCN(OCCc1ccc(O)cc1)C(C)=O)OCC [GSJ80] | – | 200 to 400 (≈ 536 to 1070 µM) | –
7 | CCOP(=O)(CCCN(OCCc1ccc(C)cc1)C(C)=O)OCC [GSJ82] | – | – | MIC [2, 3]: ≥ 400 µg/mL
8 | CC(=O)N(CCCP(=O)(OCOC(=O)C(C)(C)C)OCOC(=O)C(C)(C)C)OCCCCc1ccccc1 [GSJ89] | – | – | MIC [2, 3]: 12.5 µg/mL (≈ 22.4 µM); MIC [2, 4]: 6.25 to 12.5 µg/mL (≈ 11.2 to 22.4 µM)
9 | CC(=O)N(CCCP(=O)(OCOC(=O)c1ccccc1)OCOC(=O)c1ccccc1)OCCCCc1ccccc1 [GSJ92] | – | – | MIC [2, 3]: 25 µg/mL (≈ 41.8 µM)
10 | CC(=O)N(CCCP(=O)(OCOC(=O)C(C)(C)C)OCOC(=O)C(C)(C)C)OCc1ccc(C(C)C)cc1 [GSJ96] | – | 12.5 (≈ 22.4 µM) | –
11 | CC(=O)N(CCCP(=O)(OCOC(=O)C(C)(C)C)OCOC(=O)C(C)(C)C)OCc1ccc(-c2ccccc2)cc1 [GSJ97] | – | 12.5 (≈ 21.1 µM) | –
12 | CCOP(=O)(CCCN(OCc1cccc(-c2ccccc2)c1)C(C)=O)OCC [GSJ100] | – | 100 (≈ 238 µM) | –
13 | CCOP(=O)(CCCN(OCc1ccccc1-c1ccccc1)C(C)=O)OCC [GSJ101] | – | 200 to 400 (≈ 477 to 954 µM) | –
14 | CCOP(=O)(CCCN(OCc1ccc(Cl)c(Cl)c1)C(C)=O)OCC [GSJ102] | – | 200 (≈ 485 µM) | –
15 | CCOP(=O)(CCCN(OCc1cccc(OC(F)(F)F)c1)C(C)=O)OCC [GSJ109] | – | 400 (≈ 936 µM) | –
16 | CCOP(=O)(CCCN(OCc1ccc(OC(F)(F)F)cc1)C(C)=O)OCC [GSJ110] | – | 400 (≈ 936 µM) | –
17 | CCOP(=O)(CCCN(OCc1cc(OC)cc(OC)c1)C(C)=O)OCC [GSJ111] | – | > 400 | –
18 | CCOP(=O)(CCCN(OCc1ccc(-c2ccccc2C(=O)OC)cc1)C(C)=O)OCC [GSJ112] | – | 400 (≈ 838 µM) | –
19 | CCOP(=O)(CCCN(OCc1ccc(Br)cc1)C(C)=O)OCC [GSJ113] | – | 400 (≈ 947 µM) | –
20 | CCOP(=O)(CCCN(OCc1ccc(C)cc1)C(C)=O)OCC [GSJ114] | – | > 400 | –
21 | CCOP(=O)(CCCN(OCc1cccc(Br)c1)C(C)=O)OCC [GSJ115] | – | 400 (≈ 947 µM) | –
22 | CCOP(=O)(CCCN(OCc1cccc2ccccc12)C(C)=O)OCC [GSJ116] | – | 400 (≈ 1020 µM) | –
23 | O=C(CCc1ccccc1)N(O)CCCP(=O)(O)O [GSJ 51] | 2.92 | > 200 | IC50 ([1]; IC50 (uM)): 2.72 µM; IC50 ([1]; IC50 (ug/ml)): 2.92 µM
24 | O=C(CCCc1ccccc1)N(O)CCCP(=O)(O)O [GSJ 52] | 3.35 | > 200 | IC50 ([1]; IC50 (uM)): 3.12 µM; IC50 ([1]; IC50 (ug/ml)): 3.35 µM
25 | O=C(Cc1ccccc1)N(O)CCCP(=O)(O)O [GSJ 55] | 8.09 | > 200 | IC50 ([1]; IC50 (uM)): 7.49 µM; IC50 ([1]; IC50 (ug/ml)): 8.09 µM
26 | O=C(NCCCP(=O)(O)O)c1ccc2ccccc2c1 [GSJ 56] | – | > 200 | remaining activity at 100 µg/mL ([1]; read-out: Mtb Dxr, value in parentheses (percent enzyme activity remaining)): 90%; remaining activity at 100 µg/mL ([1]; read-out: percent enzyme activity remaining at 100 ug/ml compound): 90%
27 | CC(=O)N(CCCP(=O)(O)O)OC(C)c1ccccc1 (centres unmarked) [GSJ 63] | 173 | > 200 | IC50 ([1]; IC50 (uM)): 161 µM; IC50 ([1]; IC50 (ug/ml)): 173 µM
28 | NNC(=O)c1ccncc1 [Isoniazid, reference compound] | – | – | MIC ([2]; read-out: MIC 7H9 (μg/mL)): 0.04 µg/mL (≈ 0.292 µM); MIC ([2]; read-out: MIC GAST/Fe (μg/mL)): 0.02 µg/mL (≈ 0.146 µM)
